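1) Cells in 96-well plates. 2) Compound, 48 h, 5 concentrations. 3) Linear interpolation between surrounding doses. 4) Unreached endpoint = highest concentration. Abbreviation: GI50, concentration required for 50% inhibition of growth. TGI: concentration producing complete growth inhibition.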

What all share (assay): NCI tumour cell line growth inhibition, 48 h
The test system of assay [1] is BT-549 breast.
The test system of assay [2] is CAKI-1 renal.
Assay [3] has as its system EKVX NSCLC.
Assay [4] deals with HCC-2998 colon.
The test system of assay [5] is HT29 colon.
Assay [6] relates to KM12 colon.
Assay [7] deals with M14 melanoma.
Assay [8] deals with OVCAR-3 ovarian.
The test system of assay [9] is RXF 393 renal.
The test system of assay [10] is UO-31 renal.

On to `Cc1ccc(C=C2C(Cl)=C(Cl)C(Cl)=C2Cl)cc1`, for which the GI50 in assay [1] is 882 nM; in [2] it was 503 nM; in [3] it was 1400 nM; in [4], 1470 nM; in [5], 796 nM; in assay [6], 1150 nM. In addition, the GI50 is 561 nM in [7], 361 nM in assay [8], 308 nM in [9] and 757 nM in assay [10]. Moreover, the TGI in [1] was 3320 nM; in assay [2], 2160 nM; in [3] it was 4280 nM; in assay [4], 2930 nM; in assay [5], 2890 nM; in [6], 2560 nM. Moreover, the TGI in assay [7] turned out to be 1660 nM; in assay [8], 1060 nM; in [9] it was 906 nM; in [10], 2180 nM.

On to `COc1ccc(NC2=C(I)C(=O)c3ncccc3C2=O)cc1`, for which the GI50 was 1270 nM in assay [1]; 1210 nM in assay [2]; 1730 nM in [3]; 1450 nM in assay [4]; 3070 nM in [5]; 1680 nM in [6]. Also, the GI50 is 1290 nM in assay [7], 270 nM in [8], 1410 nM in assay [9] and 850 nM in [10]. Further, the TGI in assay [1] is 2590 nM; in assay [2] it was 2620 nM; in [3], 3680 nM; in assay [4], 3010 nM; in assay [5], 10200 nM; in assay [6], 3770 nM. Also, the TGI in assay [7] turned out to be 2900 nM; in assay [8] it was 1130 nM; in assay [9], 2820 nM; in assay [10], 2210 nM.

As for `Oc1c(Cl)cc(Cl)cc1/C=N/Nc1nnc(N/N=C/c2cc(Cl)cc(Cl)c2O)c2ccccc12`, the GI50 in assay [1] was 549 nM; in [2] it was 643 nM; in assay [3], 429 nM; in [4] it was 469 nM; in [5] it was 595 nM; in assay [6], 335 nM. The GI50 is 434 nM in assay [7], 334 nM in assay [8], 278 nM in assay [9] and 430 nM in assay [10]. The TGI in assay [1], in assay [3], in [4], in assay [5], in [6] and in assay [7] was greater than 100000 nM each time. Moreover, the TGI in [8] was 18200 nM; in [9] it was 798 nM; in [10] it was greater than 100000 nM.

For `CN(C)CC(=O)Nc1ccc2ncnc(Nc3ccc(Oc4cccc(C(F)(F)F)c4)c(Cl)c3)c2c1`, the GI50 in assay [1] is 3910 nM; in assay [2] it was 1710 nM; in assay [3], 1700 nM; in assay [4], 1660 nM; in assay [5] it was 1720 nM; in assay [6] it was 1910 nM. The GI50 was 1460 nM in assay [7], 1610 nM in [8], 1610 nM in [9] and 951 nM in [10]. For the same molecule, the TGI in assay [1] is 17300 nM; in assay [2], 7540 nM; in [3], 8050 nM; in [4], 3190 nM; in assay [5] it was 4080 nM; in assay [6], 4000 nM. The TGI in assay [7] was found to be 2850 nM; in assay [8], 3510 nM; in assay [9], 3250 nM; in assay [10] it was 2320 nM.

For the molecule `COc1cc(/C=C/c2cc(/C=C/c3ccc(O)c(OC)c3)n(C(=O)Nc3ccccc3Cl)n2)ccc1O`, the GI50 in assay [1] was 303 nM; in [2], 222 nM; in [3] it was 671 nM; in assay [4], 725 nM; in assay [5], 323 nM; in assay [6], 326 nM. In addition, the GI50 in assay [7] was 283 nM; in assay [8] it was 450 nM; in [9] it was 309 nM; in assay [10] it was 159 nM. In addition, the TGI is 2750 nM in assay [1]; 1210 nM in [2]; 3840 nM in assay [3]; 5720 nM in [4]; 1360 nM in assay [5]; 1500 nM in [6]. The TGI came to 1190 nM in assay [7], 3680 nM in assay [8], 845 nM in [9] and 1170 nM in assay [10].

On to `CCOC(=O)C1=C(C)NC(=O)NC1CN1C(=O)c2ccccc2C1=O` (centres undefined), for which the GI50 in assay [1], in assay [2], in [3], in assay [4], in assay [5] and in assay [6] was greater than 100000 nM throughout. Besides, the GI50 in assay [7], in assay [8], in [9] and in assay [10] was greater than 100000 nM in each case. Moreover, the TGI in [1], in assay [2], in [3], in [4], in [5] and in [6] was greater than 100000 nM in each case. Also, the TGI in assay [7], in assay [8], in assay [9] and in assay [10] was greater than 100000 nM in each case.

Take `N#Cc1c(NC(=O)c2ccc(F)cc2)sc2c1CCCC2`: the GI50 in assay [1], in assay [2], in [3], in assay [4], in assay [5] and in assay [6] was greater than 25000 nM each time. The GI50 in [7], in assay [8], in assay [9] and in [10] was greater than 25000 nM each time. Moreover, the TGI in assay [1], in assay [2], in assay [3], in assay [4], in [5] and in [6] was greater than 25000 nM each time. The TGI in assay [7], in assay [8], in assay [9] and in [10] was greater than 25000 nM in each case.
